Drawing on ChEMBL document CHEMBL5360625, “Design, Synthesis, and Antitumor Activity Evaluation of 2-Arylmethoxy-4-(2,2'-dihalogen-substituted biphenyl-3-ylmethoxy) Benzylamine Derivatives as Potent PD-1/PD-L1 Inhibitors” (J Med Chem, 2023), this text covers IC50 for 31 molecules.

Structures are written as SMILES. Where only a bound is given, the exact number is not on record here.

The test addresses Programmed cell death protein 1/Programmed cell death 1 ligand 1 (Homo sapiens, UniProt Q9NZQ7). Put plainly: Inhibition of PD-1/PD-L1 interaction (unknown origin) incubated for 1 hr by HTRF assay. Format: protein-complex assay. On the technique in general: Time-resolved FRET reads energy transfer from a long-lived donor to a nearby acceptor.

Programmed cell death protein 1/Programmed cell death 1 ligand 1, sequence (Q15116 whole entry): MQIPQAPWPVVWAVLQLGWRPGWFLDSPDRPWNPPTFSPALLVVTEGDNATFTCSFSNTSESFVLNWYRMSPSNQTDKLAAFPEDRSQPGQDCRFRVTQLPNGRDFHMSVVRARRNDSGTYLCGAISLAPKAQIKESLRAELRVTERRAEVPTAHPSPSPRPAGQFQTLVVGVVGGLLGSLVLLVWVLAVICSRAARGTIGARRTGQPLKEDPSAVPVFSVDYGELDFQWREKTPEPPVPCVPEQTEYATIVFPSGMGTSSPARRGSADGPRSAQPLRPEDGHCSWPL
Programmed cell death protein 1/Programmed cell death 1 ligand 1, sequence (Q9NZQ7 whole entry): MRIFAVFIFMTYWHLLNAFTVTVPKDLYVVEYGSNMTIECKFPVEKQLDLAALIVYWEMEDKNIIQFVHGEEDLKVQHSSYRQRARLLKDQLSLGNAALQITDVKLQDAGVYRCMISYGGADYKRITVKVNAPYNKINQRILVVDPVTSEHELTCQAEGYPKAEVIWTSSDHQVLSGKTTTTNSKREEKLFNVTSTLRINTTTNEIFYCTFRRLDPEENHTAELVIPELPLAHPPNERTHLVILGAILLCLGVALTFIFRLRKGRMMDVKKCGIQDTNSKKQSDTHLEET

`COc1c(COc2ccc(CNCCNC(C)=O)c(OCc3cccnc3F)c2)cccc1-c1ccccc1` yielded a 50% inhibitory concentration (IC50) of 12.9 µM.
To `COc1c(COc2ccc(OCc3cccc(C#N)c3)c(CNCCNC(C)=O)c2)cccc1-c1ccccc1` belongs more than 32 µM.
To `COc1c(COc2ccc(CN[C@@H](CO)C(=O)O)c(OCc3cccc(C#N)c3)c2)cccc1-c1ccccc1` belongs 2.6 µM; to `N#Cc1cccc(COc2cc(OCc3cccc(-c4ccccc4F)c3F)ccc2CN[C@@H](CO)C(=O)O)c1`, 115 µM; to `COc1c(NCc2ccc(OCc3ccc(F)cc3)c(CNCCO)c2)cccc1-c1ccccc1`, more than 32 µM.
The molecule `COc1c(COc2ccc(CNCCNC(C)=O)c(OCc3cccc(C#N)c3)c2)cccc1-c1ccccc1Cl` showed an IC50 of 3.6 µM.
Molecule `COc1c(COc2ccc(CNCCO)c(OCc3cccc(C#N)c3)c2)cccc1-c1ccccc1F` showed an IC50 of 1660 µM.
To `COc1c(COc2ccc(CNCCO)c(OCc3ccc(F)cc3)c2)cccc1-c1ccccc1` belongs 8.6 µM.
Then `COc1c(COc2cc(OCc3cncc(C#N)c3)c(CNCCO)cc2Cl)cccc1-c1ccccc1F`, with 348 µM; and `COc1c(NCc2ccc(OCc3ccc(F)cc3)c(CNCCNC(C)=O)c2)cccc1-c1ccc2cc[nH]c2c1`, with more than 32 µM; and `COc1c(COc2ccc(CNCCNC(C)=O)c(OCc3cccc(C#N)c3)c2)cccc1-c1cccc(F)c1`, with 5.5 µM.
Then `COc1c(NCc2ccc(OCc3ccc(F)cc3)c(CNCCO)c2)cccc1-c1ccc2ccccc2c1`, with more than 32 µM.
In the case of `COc1c(NCc2ccc(OCc3cccc(C#N)c3)c(CNCCO)c2)cccc1-c1ccc2ccccc2c1`, the IC50 is more than 32 µM.
Then `COc1c(COc2ccc(CNCCNC(C)=O)c(OCc3ccc(F)cc3)c2)cccc1-c1ccccc1`, with more than 32 µM; and `Cc1c(COc2ccc(CNCCO)c(OCc3cccc(C#N)c3)c2)cccc1-c1ccccc1F`, with 37.6 µM.
To `COc1c(COc2ccc(CN[C@@H](CO)C(=O)O)c(OCc3cncc(C#N)c3)c2)cccc1-c1ccccc1F` belongs 616 µM.
As to `COc1c(COc2ccc(CNCCNC(C)=O)c(OCc3cccc(C#N)c3)c2)cccc1-c1ccccc1F`, the IC50 stood at 2.4 µM.
To `COc1c(COc2ccc(CNCCNC(C)=O)c(OCc3cccc(C#N)c3)c2)cccc1-c1ccccc1` belongs 23.3 µM; to `COc1c(NCc2ccc(OCc3cccc(C#N)c3)c(CNCCO)c2)cccc1-c1ccccc1`, 32 µM.
To `COc1c(COc2ccc(CN[C@@H](CO)C(=O)O)c(OCc3cccc(C#N)c3)c2)cccc1-c1ccccc1F` belongs 2130 µM; to `COc1c(COc2ccc(CN3C[C@@H](O)C[C@@H]3C(=O)O)c(OCc3cccc(C#N)c3)c2)cccc1-c1ccccc1`, 21.8 µM; to `COc1c(NCc2ccc(OCc3cccc(C#N)c3)c(CNCCO)c2)cccc1-c1ccc2cc[nH]c2c1`, more than 32 µM.
Then `COc1cc(COc2cc(OCc3cccc(-c4ccccc4)c3OC)ccc2CNCCNC(C)=O)ccn1`, with 13.7 µM; and `COc1c(NCc2ccc(OCc3ccc(C(=O)O)cc3)c(CNCCO)c2)cccc1-c1ccccc1`, with more than 32 µM.
As to `COc1c(COc2ccc(CN3CCC[C@H]3C(=O)O)c(OCc3cccc(C#N)c3)c2)cccc1-c1ccccc1`, half-maximal inhibition (IC50) was put at 18.9 µM. This counts as double-digit micromolar.
Then `COc1c(COc2ccc(CNCCNC(C)=O)c(OCc3cncc(C#N)c3)c2)cccc1-c1ccccc1F`, with 1000 µM; and `COc1c(COc2ccc(CNCC(=O)O)c(OCc3cccc(C#N)c3)c2)cccc1-c1ccccc1`, with 5.5 µM; and `COc1c(NCc2ccc(OCc3cccc(C#N)c3)c(CNCCNC(C)=O)c2)cccc1-c1ccccc1`, with more than 32 µM.
Then `COc1c(COc2ccc(CNCCNC(C)=O)c(OCc3cccc(F)c3)c2)cccc1-c1ccccc1`, with 11.3 µM; and `COc1c(COc2ccc(CN3CCC[C@@H]3C(=O)O)c(OCc3cccc(C#N)c3)c2)cccc1-c1ccccc1`, with 19.4 µM.
As for `COc1c(COc2ccc(CNCCNC(C)=O)c(OCc3ccc(C#N)cc3)c2)cccc1-c1ccccc1`, the IC50 amounted to 22.7 µM.

The IC50 is the midpoint of a concentration-inhibition curve.
